Experimental data: patent US9975853B2, “Tetrahydroisoquinolinone derivatives and their use in the inhibition of the HSP70 protein” (Julius-Maximilians-Universitaet Wuerzburg, priority 2014, dated 2018)

Key:
Assay type in all cases: cell-based, human
[1] = system: peripheral blood mononuclear cells (PBMCs); test: Cell viability assay in non-malignant peripheral blood mononuclear cells; conditions: 72 hours
Experimental: The effect of pharmacological Hsp70 inhibition on cell viability was analyzed after 72 hours of treatment in both non-malignant (mononuclear cells from the peripheral blood) and malignant lymphocytes (multiple myeloma cells). The mononuclear cells were separated from the peripheral blood of healthy donors by Ficoll-Hypaque density gradient centrifugation. The human cell line INA-6 represents a well-established model for multiple myeloma. The percentage of viable and apoptotic cell fractions was assessed using an annexin V-FITC/propidium iodide (PI) staining kit (Bender MedSystems, Vienna, Austria) according to manufacturer's instructions. In brief, cells were washed in PBS, incubated for 10 min in 100 ml binding buffer (10 mM HEPES/NaOH, pH 7.4, 140 mM NaCl, 2.5 mM CaCl2) containing 2.5 ml annexin V-FITC mix and 1 mg/ml propidium iodide (PI), subsequently diluted with 100 ml binding buffer and analyzed by flow cytometry (FACSCalibur/CELLQuest; Becton Dickinson, Heidelberg, Germany). […] To establish kill curves, concentrations of the tested compounds were titrated, and the measured viable cell fractions were further analyzed using the Prism Calculation Software (GraphPad Software Inc., La Jolla, USA). […]

HSP90 = test: Western blot analysis of HSP90 expression in INA-6 cells; conditions: INA-6, 0.6 μM, with Z-VAD-FMK 50 μM
Experimental: Western Blot Analysis. Protein expression levels were determined with Western blotting procedures (M. Chatterjee, et al., Blood 2002, 100, 3311-3318). Following separation by SDS-PAGE, proteins were transferred onto nitrocellulose membranes (Schleicher & Schuell, Dassel, Germany) and stained with antibodies against Hsp72, Hsp73, Hsp90 (all from Enzo Life Science, Lörrach, Germany), AIF, lamin A, caspases 9 and 3, PARP (all from Santa Cruz, Heidelberg, Germany). An anti-α tubulin antibody (Sigma, Deisenhofen, Germany) was employed to assess equal loading. Secondary antibodies used were anti-rat (Enzo Life Science), anti-rabbit and anti-mouse (both from GE Healthcare, Little Chalfont, UK). […] The heat shock proteins HSP72 and HSP73 critically interact with HSP90 in order to mediate an essential chaperone function for a multitude of proteins including various signaling intermediates. According to an established HSP72/73-dependent client protein signature and its role for survival in MM, the proposed anti-HSP72/73 effect of trans-7b in the INA-6 multiple myeloma (MM) cell line model was evaluated. […] Lysates were cleared by centrifugation, measured by quantitative protein assay (Bio-Rad, München, Germany) and subjected to SDS gel electrophoresis. […]

INA-6 = test: Cell viability assay (annexin V-FITC/propidium iodide, flow cytometry) in INA-6 multiple myeloma cells
Experimental: The effect of pharmacological Hsp70 inhibition on cell viability was analyzed after 72 hours of treatment in both non-malignant (mononuclear cells from the peripheral blood) and malignant lymphocytes (multiple myeloma cells). The mononuclear cells were separated from the peripheral blood of healthy donors by Ficoll-Hypaque density gradient centrifugation. The human cell line INA-6 represents a well-established model for multiple myeloma. The percentage of viable and apoptotic cell fractions was assessed using an annexin V-FITC/propidium iodide (PI) staining kit (Bender MedSystems, Vienna, Austria) according to manufacturer's instructions. In brief, cells were washed in PBS, incubated for 10 min in 100 ml binding buffer (10 mM HEPES/NaOH, pH 7.4, 140 mM NaCl, 2.5 mM CaCl2) containing 2.5 ml annexin V-FITC mix and 1 mg/ml propidium iodide (PI), subsequently diluted with 100 ml binding buffer and analyzed by flow cytometry (FACSCalibur/CELLQuest; Becton Dickinson, Heidelberg, Germany). Whereas viable cells are negative for both, annexin V-FITC and PI, early apoptotic cells show a positive annexin V-FITC staining, and cells in a late apoptotic stage which lose their membrane integrity additionally incorporate DNA-binding PI. To establish kill curves, concentrations of the tested compounds were titrated, and the measured viable cell fractions were further analyzed using the Prism Calculation Software (GraphPad Software Inc., La Jolla, USA).
In FIG. 2A Western blot analyses of caspases 9 and 3, and the caspase substrate PARP (upper panel), and viability analyses (lower panel) of INA-6 MM cells upon treatment with trans-7b for 24 hours are shown. INA-6 cells were either incubated with DMSO (as a solvent control) or with 0.6 μM of trans-7b, and additionally incubated either with DMSO or the pan-caspase inhibitor Z-VAD-FMK prior to analyses by Western or viability assessment (without Z-VAD-FMK co-treatment) by Annexin V/propidum iodide double staining. For Western analyses INA-6 cell pellets were dissolved in lysis buffer (20 mM HEPES (pH 7.9), 350 mM NaCl, 1 mM MgCl2, 0.5 mM EDTA, 0.1 mM EGTA, 1% NP40, 0.5 mM dithiothreiol (DTT), 1 mM Na3VO4, 0.1 mM PMSF and 1 μg/ml aprotinin). Lysates were cleared by centrifugation, measured by quantitative protein assay (Bio-Rad, München, Germany) and subjected to SDS gel electrophoresis. Proteins were transferred onto nitrocellulose membranes (Schleicher & Schuell, Dassel, Germany), incubated with antibodies specific for caspase 9, caspase 3 or PARP (Cell Signaling Technology, Frankfurt a.Main, Germany) according to standard procedures and visualized with secondary anti-rabbit horseradish peroxidase (HRP)-conjugated antibodies using an enhanced chemoluminescence detection system (ECL, Amersham, Freiburg, Germany). […] Annexin V/propidium iodide (PI) staining was performed using a fluorescein isothiocyanate (FITC) conjugated recombinant human annexin/propidium iodide kit (BenderMedSystems, Vienna, Austria) according to the manufacturer's instructions. INA-6 cells were washed in PBS, incubated for 15 minutes in 100 ml binding buffer (10 mM HEPES/NaOH, pH 7.4, 140 mM NaCl, 2.5 mM CaCl2) containing 2.5 mL annexin V-FITC mix and 1 mg/ml PI and analyzed by flow cytometry (FACSCalibur/CELLQuest; Becton Dickinson, Heidelberg, Germany). Whereas early apoptosis is characterized by positive annexin V-FITC staining reaction, cells in a late apoptotic stage lose their membrane integrity and additionally incorporate PI. Thus, the fraction of viable cells remains negative for both annexin V-FITC and PI. […] Based on the above described experiments also viability analyses of INA-6 in comparison with non-malignant PBMCs were performed choosing a longer incubation time (72 hours) as shown in FIG. 2B or C. Raw data of three independent experiments have been calculated to establish means, standard deviation and dose-effect curves of trans-7b.

## COc1ccc(C2C(C(=O)Nc3cccc(C)n3)c3ccccc3C(=O)N2c2ccccc2)cc1 (stereo not drawn) [trans-7b, trans-3-(4-Methoxyphenyl)-N-(6-methylpyridin-2-yl)-1-oxo-2-phenyl-1,2,3,4-tetrahydroisoquinoline-4-carboxamide]
[1]
  cytotoxic effect in primary PBMCs (viability): lack any cytotoxic effect even in higher micromolar concentrations
HSP90
  HSP90 expression: remains unchanged
INA-6; 0.6 μM, 24 hours, Annexin V/propidium iodide
  viability of INA-6 cells in comparison with the DMSO control (100%): drastically decreased
INA-6; 72 hours, three independent experiments
  sensitivity of INA-6 tumor cells (viability, dose-effect curves): highly sensitive (in a low micromolar range)
INA-6; Homo sapiens, INA-6, 72 h, INA-6 multiple myeloma cells, 72 hours of treatment, viable cell fraction, mean of at least three determinations, read-out: INA-6 EC50(±sdv)
  EC50: 410 nM
